How the values were obtained:
[1] = Dissolution rate measurement (UV, 250 mL medium, 150 RPM, 2 h, 37 °C); type: physicochemical; settings: 37 °C
Protocol: The solubility and dissolution studies of pure PUE, I, and II were measured using a Thermo Scientific Evolution 300 UV spectrometer in deionized water at pH 7.0, gastrointestinal tract at pH 1.2, and phosphate buffer at pH 6.8 solution at 37 °C. The concentration was calculated utilizing a standard curve, which was made by measuring the absorbance of different concentrations at their λmax. A superfluity sum of the sample was added to 10 mL of H2O medium, pH 1.2 and pH 6.8 phosphate, respectively.
The oversaturated solution was stirred at 500 RPM by magnetic stirring at 37 °C for 24 h and the suspension was filtered through Whatman’s […] syringe channel, diluted sufficiently and the absorbance was measured at their λmax. For the dissolution rate, the sample was specifically poured into 250 mL pH 7.0 water, pH 1.2 gastrointestinal tract, and pH 6.8 phosphates medium and then stirred at 150 RPM for 2h at 37 °C. Each solution was measured by the absorbance at λmax. At customary interims, the solution was replenished with 3 mL of the respective blank solution to maintain an overall steady volume.

HEK-293 cell lines = assay: Cytotoxicity evaluation by MTT assay, HEK-293; type: cell-based, human; settings: HEK-293, culturing 24 h
Protocol: (§1) CT-26 and HEK-293 cell line was purchased from American Type Culture Collection (Manassas, VA, USA). The cell lines were cultured in RPMI 1640 (for CT-26) or DMEM (for HEK-293) containing 10% fetal bovine serum (FBS, Zhejiang Tianhang Biotechnology Co. Ltd., Hangzhou, China) and 1% penicillin/streptomycin (Zhejiang Tianhang Biotechnology Co. Ltd., Hangzhou, China). Cells grew as a monolayer and were detached upon confluence using trypsin (0.5% w/v in PBS, Zhejiang Tianhang Biotechnology Co. Ltd., Hangzhou, China). The cells were harvested from the cell culture medium by incubating in trypsin solution for 3 min. The cells were centrifuged, and the supernatant discarded. A 3 mL portion of serum-supplemented cell culture medium was added to neutralize any residual trypsin. The cells were re-suspended in serum-supplemented RPMI 1640 (for CT-26) or DMEM (for HEK-293) at a concentration of 5 × 10^4 cells per 1 mL. Cells were cultured at 37 °C and 5% CO2 for MTT studies.
(§2) The CT-26 or HEK-293 cells were seeded at a density of 1 × 10^4 cells per well in 100 µL of complete RPMI 1640 (CT-26) or DMEM (for HEK-293), and cultured for 16 h for attachment. The culture medium was then replaced by a serum-free medium containing various concentrations of pristine PUE, I, and II. […] After incubating the cells at 37 °C for 4 h, the MTT solution was removed and DMSO (100 μL) added to dissolve the formazan crystals formed, and the microplates were agitated for 5 min at a medium rate before the spectrophotometric measurement at a wavelength of 570 nm on a microplate reader. […] The relative cell viability (%) related to control cells was calculated by the formula below: V%=[A]experimental−[A]blank/[A]control−[A]blank×100% where V% is the percentage of cell viability, [A]experimental is the absorbance of the wells culturing the treated cells, [A]blank is the absorbance of the blank, and [A]control is the absorbance of the wells culturing untreated cells.

CT-26 cancer cell lines = assay: Cytotoxicity evaluation by MTT assay, CT-26; type: cell-based, murine; settings: CT-26, culturing 24 h
Protocol: as §1, §2

Work on O=C(O)[C@@H]1CCCN1.O=c1c(-c2ccc(O)cc2)coc2c([C@@H]3O[C@H](CO)[C@@H](O)[C@H](O)[C@H]3O)c(O)ccc12 [I, [PUE][PRO]] yielded a Time-dependent dissolution rate ([1]; Water, 5 min) of 0.220 mg/mL, a Time-dependent dissolution rate ([1]; Water, 10 min) of 0.343 mg/mL and a Time-dependent dissolution rate ([1]; Water, 15 min) of 0.452 mg/mL. The Time-dependent dissolution rate ([1]; Water, 20 min) was 0.533 mg/mL, the Time-dependent dissolution rate ([1]; Water, 25 min) was 0.591 mg/mL and the Time-dependent dissolution rate ([1]; Water, 30 min) was 0.674 mg/mL. The Time-dependent dissolution rate ([1]; Water, 40 min) was 0.767 mg/mL, the Time-dependent dissolution rate ([1]; Water, 50 min) was 0.945 mg/mL and the Time-dependent dissolution rate ([1]; Water, 60 min) was 1.045 mg/mL. The Time-dependent dissolution rate ([1]; Water, 80 min) was 1.373 mg/mL, the Time-dependent dissolution rate ([1]; Water, 100 min) was 1.503 mg/mL and the Time-dependent dissolution rate ([1]; Water, 120 min) was 1.645 mg/mL. For the same compound, the Time-dependent dissolution rate ([1]; pH 1.2, 5 min) was 0.013 mg/mL, the Time-dependent dissolution rate ([1]; pH 1.2, 10 min) was 0.035 mg/mL and the Time-dependent dissolution rate ([1]; pH 1.2, 15 min) was 0.122 mg/mL. It also gave a Time-dependent dissolution rate ([1]; pH 1.2, 20 min) of 0.192 mg/mL, a Time-dependent dissolution rate ([1]; pH 1.2, 25 min) of 0.249 mg/mL and a Time-dependent dissolution rate ([1]; pH 1.2, 30 min) of 0.356 mg/mL. The Time-dependent dissolution rate ([1]; pH 1.2, 40 min) was 0.588 mg/mL, the Time-dependent dissolution rate ([1]; pH 1.2, 50 min) was 0.711 mg/mL and the Time-dependent dissolution rate ([1]; pH 1.2, 60 min) was 0.958 mg/mL. It also gave a Time-dependent dissolution rate ([1]; pH 1.2, 80 min) of 1.159 mg/mL, a Time-dependent dissolution rate ([1]; pH 1.2, 100 min) of 1.383 mg/mL and a Time-dependent dissolution rate ([1]; pH 1.2, 120 min) of 1.603 mg/mL. It also gave a Time-dependent dissolution rate ([1]; pH 6.8, 5 min) of 0.207 mg/mL, a Time-dependent dissolution rate ([1]; pH 6.8, 10 min) of 0.291 mg/mL and a Time-dependent dissolution rate ([1]; pH 6.8, 15 min) of 0.384 mg/mL. For the same compound, the Time-dependent dissolution rate ([1]; pH 6.8, 20 min) was 0.493 mg/mL, the Time-dependent dissolution rate ([1]; pH 6.8, 25 min) was 0.570 mg/mL and the Time-dependent dissolution rate ([1]; pH 6.8, 30 min) was 0.664 mg/mL. The Time-dependent dissolution rate ([1]; pH 6.8, 40 min) was 0.786 mg/mL, the Time-dependent dissolution rate ([1]; pH 6.8, 50 min) was 0.850 mg/mL and the Time-dependent dissolution rate ([1]; pH 6.8, 60 min) was 0.918 mg/mL. The Time-dependent dissolution rate ([1]; pH 6.8, 80 min) was 1.183 mg/mL, the Time-dependent dissolution rate ([1]; pH 6.8, 100 min) was 1.265 mg/mL and the Time-dependent dissolution rate ([1]; pH 6.8, 120 min) was 1.303 mg/mL. The “cytotoxicity (MTT cell viability)” value (HEK-293 cell lines) was “negligible cytotoxicity” and the “cytotoxicity (MTT cell viability)” value (CT-26 cancer cell lines) was “negligible cytotoxicity”.
